Organism: Rattus norvegicus
Test: DrugMatrix - Regimen: Daily Repeat
Type: toxicity, organism-based, Sprague-Dawley
Design: regimen Daily Repeat, gender Male, age 6-8 weeks
Conditions: in vivo, po, route oral GAVAGE, vehicle .5 % CMC; for BASOPHIL / EOSINOPHIL / ERYTHROCYTE COUNT / HEMATOCRIT / HEMOGLOBIN / LEUKOCYTE COUNT / LYMPHOCYTE / MEAN CORPUSCULAR HEMOGLOBIN / MEAN CORPUSCULAR HEMOGLOBIN CONCENTRATION / MEAN CORPUSCULAR VOLUME / MONOCYTE / NEUTROPHIL / PLATELET COUNT: tissue Blood; for ALANINE AMINOTRANSFERASE / ALBUMIN / ALKALINE PHOSPHATASE / ASPARTATE AMINOTRANSFERASE / BLOOD UREA NITROGEN / CHLORIDE / CHOLESTEROL / CREATINE PHOSPHOKINASE / CREATININE / GLUCOSE / PHOSPHORUS / POTASSIUM / SODIUM / TOTAL BILIRUBIN / TOTAL PROTEIN: tissue Plasma
[1] = 0 mg/kg, 72 h, dose level Control, time 3 day
[2] = 0 mg/kg, 120 h, dose level Control, time 5 day
[3] = 32 mg/kg, 72 h, dose level Low, time 3 day
[4] = 32 mg/kg, 120 h, dose level Low, time 5 day

CC[C@H]1OC(=O)[C@H](C)[C@@H](O[C@H]2C[C@@](C)(OC)[C@@H](O)[C@H](C)O2)[C@H](C)[C@@H](O[C@@H]2O[C@H](C)C[C@H](N(C)C)[C@H]2O)[C@](C)(O)C[C@@H](C)/C(=N\OCOCCOC)[C@H](C)[C@@H](O)[C@]1(C)O [ROXITHROMYCIN]
BASOPHIL [1]: 1.52%
EOSINOPHIL [1]: 0.98%
ERYTHROCYTE COUNT [1]: 6.96 x10E6/uL
HEMATOCRIT [1]: 44.65%
HEMOGLOBIN [1]: 13.62 G/DL
LEUKOCYTE COUNT [1]: 9.83 x10E3/uL
LYMPHOCYTE [1]: 76.48%
MEAN CORPUSCULAR HEMOGLOBIN [1]: 19.57 pg
MEAN CORPUSCULAR HEMOGLOBIN CONCENTRATION [1]: 30.47 G/DL
MEAN CORPUSCULAR VOLUME [1]: 64.22 fL
MONOCYTE [1]: 2.13%
NEUTROPHIL [1]: 18.6%
PLATELET COUNT [1]: 1217.17 x10E3/uL
ALANINE AMINOTRANSFERASE [1]: 41 u/L
ALBUMIN [1]: 3.77 G/DL
ALKALINE PHOSPHATASE [1]: 411.83 u/L
ASPARTATE AMINOTRANSFERASE [1]: 62.83 u/L
BLOOD UREA NITROGEN [1]: 15.17 mg/dL
CHLORIDE [1]: 104.33 MEQ/L
CHOLESTEROL [1]: 71.17 mg/dL
CREATINE PHOSPHOKINASE [1]: 123.5 u/L
CREATININE [1]: 0.55 mg/dL
GLUCOSE [1]: 182.67 mg/dL
PHOSPHORUS [1]: 11.23 mg/dL
POTASSIUM [1]: 7.03 MEQ/L
SODIUM [1]: 148 MEQ/L
TOTAL BILIRUBIN [1]: 0.57 mg/dL
TOTAL PROTEIN [1]: 6.85 G/DL
BASOPHIL [2]: 1.35%
EOSINOPHIL [2]: 0.43%
ERYTHROCYTE COUNT [2]: 6.96 x10E6/uL
HEMATOCRIT [2]: 44.35%
HEMOGLOBIN [2]: 13.98 G/DL
LEUKOCYTE COUNT [2]: 9.45 x10E3/uL
LYMPHOCYTE [2]: 80.83%
MEAN CORPUSCULAR HEMOGLOBIN [2]: 20.1 pg
MEAN CORPUSCULAR HEMOGLOBIN CONCENTRATION [2]: 31.52 G/DL
MEAN CORPUSCULAR VOLUME [2]: 63.72 fL
MONOCYTE [2]: 2.37%
NEUTROPHIL [2]: 14.05%
PLATELET COUNT [2]: 1298 x10E3/uL
ALANINE AMINOTRANSFERASE [2]: 42.17 u/L
ALBUMIN [2]: 3.77 G/DL
ALKALINE PHOSPHATASE [2]: 419 u/L
ASPARTATE AMINOTRANSFERASE [2]: 66.67 u/L
BLOOD UREA NITROGEN [2]: 16.67 mg/dL
CHLORIDE [2]: 103.17 MEQ/L
CHOLESTEROL [2]: 66.33 mg/dL
CREATINE PHOSPHOKINASE [2]: 148.33 u/L
CREATININE [2]: 0.58 mg/dL
GLUCOSE [2]: 196.83 mg/dL
PHOSPHORUS [2]: 11.8 mg/dL
POTASSIUM [2]: 6.47 MEQ/L
SODIUM [2]: 148.33 MEQ/L
TOTAL BILIRUBIN [2]: 0.53 mg/dL
TOTAL PROTEIN [2]: 6.77 G/DL
BASOPHIL [3]: 1.33%
EOSINOPHIL [3]: 0.27%
ERYTHROCYTE COUNT [3]: 7.39 x10E6/uL
HEMATOCRIT [3]: 47.23%
HEMOGLOBIN [3]: 14.73 G/DL
LEUKOCYTE COUNT [3]: 12.3 x10E3/uL
LYMPHOCYTE [3]: 88.63%
MEAN CORPUSCULAR HEMOGLOBIN [3]: 19.9 pg
MEAN CORPUSCULAR HEMOGLOBIN CONCENTRATION [3]: 31.13 G/DL
MEAN CORPUSCULAR VOLUME [3]: 63.97 fL
MONOCYTE [3]: 1.7%
NEUTROPHIL [3]: 7.6%
PLATELET COUNT [3]: 1462 x10E3/uL
ALANINE AMINOTRANSFERASE [3]: 37.67 u/L
ALBUMIN [3]: 3.7 G/DL
ALKALINE PHOSPHATASE [3]: 340.33 u/L
ASPARTATE AMINOTRANSFERASE [3]: 58.33 u/L
BLOOD UREA NITROGEN [3]: 12.33 mg/dL
CHLORIDE [3]: 104.67 MEQ/L
CHOLESTEROL [3]: 59.67 mg/dL
CREATINE PHOSPHOKINASE [3]: 128 u/L
CREATININE [3]: 0.57 mg/dL
GLUCOSE [3]: 224 mg/dL
PHOSPHORUS [3]: 13.23 mg/dL
POTASSIUM [3]: 6.93 MEQ/L
SODIUM [3]: 148.67 MEQ/L
TOTAL BILIRUBIN [3]: 0.4 mg/dL
TOTAL PROTEIN [3]: 6.7 G/DL
BASOPHIL [4]: 1.4%
EOSINOPHIL [4]: 0.3%
ERYTHROCYTE COUNT [4]: 7.37 x10E6/uL
HEMATOCRIT [4]: 44.93%
HEMOGLOBIN [4]: 14.13 G/DL
LEUKOCYTE COUNT [4]: 11.7 x10E3/uL
LYMPHOCYTE [4]: 81.47%
MEAN CORPUSCULAR HEMOGLOBIN [4]: 19.27 pg
MEAN CORPUSCULAR HEMOGLOBIN CONCENTRATION [4]: 31.5 G/DL
MEAN CORPUSCULAR VOLUME [4]: 61.2 fL
MONOCYTE [4]: 2.4%
NEUTROPHIL [4]: 13.53%
PLATELET COUNT [4]: 1353.33 x10E3/uL
ALANINE AMINOTRANSFERASE [4]: 35.67 u/L
ALBUMIN [4]: 3.57 G/DL
ALKALINE PHOSPHATASE [4]: 391.67 u/L
ASPARTATE AMINOTRANSFERASE [4]: 57.67 u/L
BLOOD UREA NITROGEN [4]: 12.67 mg/dL
CHLORIDE [4]: 103 MEQ/L
CHOLESTEROL [4]: 66.33 mg/dL
CREATINE PHOSPHOKINASE [4]: 131.67 u/L
CREATININE [4]: 0.57 mg/dL
GLUCOSE [4]: 185.67 mg/dL
PHOSPHORUS [4]: 12.77 mg/dL
POTASSIUM [4]: 6.73 MEQ/L
SODIUM [4]: 148.33 MEQ/L
TOTAL BILIRUBIN [4]: 0.3 mg/dL
TOTAL PROTEIN [4]: 6.23 G/DL

Source: ChEMBL document CHEMBL3885881, “DrugMatrix”
